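In this assay, cells in 96-well plates receive the compound at five concentrations for 48 hours. Endpoints are linearly interpolated between the surrounding concentrations. GI50 = concentration required for 50% inhibition of growth. TGI: total growth inhibition.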
Columns and labels:
Assay in all cases: inhibition of tumour cell growth, NCI panel, 48 h
NCI/ADR-RES ovarian = system: NCI/ADR-RES ovarian
HS 578T breast = system: HS 578T breast
A549 NSCLC = system: A549 NSCLC
MALME-3M melanoma = system: MALME-3M melanoma
MDA-MB-231 breast = system: MDA-MB-231 breast
NCI-H522 lung = system: NCI-H522 lung
A498 renal = system: A498 renal
SR leukemia = system: SR leukemia
EKVX NSCLC = system: EKVX NSCLC
BT-549 breast = system: BT-549 breast
SK-MEL-28 melanoma = system: SK-MEL-28 melanoma
COLO 205 colon = system: COLO 205 colon
K-562 leukemia = system: K-562 leukemia
UO-31 renal = system: UO-31 renal
KM12 colon = system: KM12 colon
OVCAR-3 ovarian = system: OVCAR-3 ovarian
OVCAR-8 ovarian = system: OVCAR-8 ovarian
CCRF-CEM leukemia = system: CCRF-CEM leukemia
786-0 renal = system: 786-0 renal
OVCAR-4 ovarian = system: OVCAR-4 ovarian
UACC-62 melanoma = system: UACC-62 melanoma
TK-10 renal = system: TK-10 renal
MDA-MB-468 breast = system: MDA-MB-468 breast
HCT-116 colon = system: HCT-116 colon
SW-620 colon = system: SW-620 colon
SN12C renal = system: SN12C renal
RPMI-8226 leukemia = system: RPMI-8226 leukemia
UACC-257 melanoma = system: UACC-257 melanoma
SNB-75 CNS = system: SNB-75 CNS
ACHN renal = system: ACHN renal
U251 CNS = system: U251 CNS
OVCAR-5 ovarian = system: OVCAR-5 ovarian
T-47D breast = system: T-47D breast
HOP-62 NSCLC = system: HOP-62 NSCLC
MCF7 breast = system: MCF7 breast
SNB-19 CNS = system: SNB-19 CNS
SK-OV-3 ovarian = system: SK-OV-3 ovarian
MDA-MB-435 = system: MDA-MB-435
SK-MEL-5 melanoma = system: SK-MEL-5 melanoma
NCI-H226 lung = system: NCI-H226 lung
HOP-92 NSCLC = system: HOP-92 NSCLC
MOLT-4 leukemia = system: MOLT-4 leukemia
NCI-H23 lung = system: NCI-H23 lung
HCC-2998 colon = system: HCC-2998 colon
DU-145 prostate = system: DU-145 prostate
HCT-15 colon = system: HCT-15 colon
M14 melanoma = system: M14 melanoma
HT29 colon = system: HT29 colon
SF-295 CNS = system: SF-295 CNS
SF-539 CNS = system: SF-539 CNS
NCI-H460 lung = system: NCI-H460 lung
SF-268 CNS = system: SF-268 CNS
LOX IMVI melanoma = system: LOX IMVI melanoma
SK-MEL-2 melanoma = system: SK-MEL-2 melanoma
IGROV1 ovarian = system: IGROV1 ovarian
CAKI-1 renal = system: CAKI-1 renal
HL-60(TB) leukemia = system: HL-60(TB) leukemia
RXF 393 renal = system: RXF 393 renal
PC-3 prostate = system: PC-3 prostate

COCOc1cc2c(=O)c(C)c(C(=O)N[C@@H](Cc3ccccc3)C(O)C(=O)NCc3ccccc3)oc2cc1OC (stereo partly drawn)
GI50 (NCI/ADR-RES ovarian): > 100 µM
TGI (NCI/ADR-RES ovarian): > 100 µM
GI50 (HS 578T breast): > 100 µM
TGI (HS 578T breast): > 100 µM
GI50 (A549 NSCLC): > 100 µM
TGI (A549 NSCLC): > 100 µM
GI50 (MALME-3M melanoma): > 100 µM
TGI (MALME-3M melanoma): > 100 µM
GI50 (MDA-MB-231 breast): > 100 µM
TGI (MDA-MB-231 breast): > 100 µM
GI50 (NCI-H522 lung): > 100 µM
TGI (NCI-H522 lung): > 100 µM
GI50 (A498 renal): > 100 µM
TGI (A498 renal): > 100 µM
GI50 (SR leukemia): > 100 µM
TGI (SR leukemia): > 100 µM
GI50 (EKVX NSCLC): > 100 µM
TGI (EKVX NSCLC): > 100 µM
GI50 (BT-549 breast): > 100 µM
TGI (BT-549 breast): > 100 µM
GI50 (SK-MEL-28 melanoma): > 100 µM
TGI (SK-MEL-28 melanoma): > 100 µM
GI50 (COLO 205 colon): > 100 µM
TGI (COLO 205 colon): > 100 µM
GI50 (K-562 leukemia): > 100 µM
TGI (K-562 leukemia): > 100 µM
GI50 (UO-31 renal): > 100 µM
TGI (UO-31 renal): > 100 µM
GI50 (KM12 colon): > 100 µM
TGI (KM12 colon): > 100 µM
GI50 (OVCAR-3 ovarian): > 100 µM
TGI (OVCAR-3 ovarian): > 100 µM
GI50 (OVCAR-8 ovarian): > 100 µM
TGI (OVCAR-8 ovarian): > 100 µM
GI50 (CCRF-CEM leukemia): > 100 µM
TGI (CCRF-CEM leukemia): > 100 µM
GI50 (786-0 renal): > 100 µM
TGI (786-0 renal): > 100 µM
GI50 (OVCAR-4 ovarian): > 100 µM
TGI (OVCAR-4 ovarian): > 100 µM
GI50 (UACC-62 melanoma): > 100 µM
TGI (UACC-62 melanoma): > 100 µM
GI50 (TK-10 renal): > 100 µM
TGI (TK-10 renal): > 100 µM
GI50 (MDA-MB-468 breast): > 100 µM
TGI (MDA-MB-468 breast): > 100 µM
GI50 (HCT-116 colon): > 100 µM
TGI (HCT-116 colon): > 100 µM
GI50 (SW-620 colon): > 100 µM
TGI (SW-620 colon): > 100 µM
GI50 (SN12C renal): > 100 µM
TGI (SN12C renal): > 100 µM
GI50 (RPMI-8226 leukemia): > 100 µM
TGI (RPMI-8226 leukemia): > 100 µM
GI50 (UACC-257 melanoma): > 100 µM
TGI (UACC-257 melanoma): > 100 µM
GI50 (SNB-75 CNS): 96.7 µM
TGI (SNB-75 CNS): > 100 µM
GI50 (ACHN renal): > 100 µM
TGI (ACHN renal): > 100 µM
GI50 (U251 CNS): > 100 µM
TGI (U251 CNS): > 100 µM
GI50 (OVCAR-5 ovarian): > 100 µM
TGI (OVCAR-5 ovarian): > 100 µM
GI50 (T-47D breast): > 100 µM
TGI (T-47D breast): > 100 µM
GI50 (HOP-62 NSCLC): > 100 µM
TGI (HOP-62 NSCLC): > 100 µM
GI50 (MCF7 breast): > 100 µM
TGI (MCF7 breast): > 100 µM
GI50 (SNB-19 CNS): > 100 µM
TGI (SNB-19 CNS): > 100 µM
GI50 (SK-OV-3 ovarian): > 100 µM
TGI (SK-OV-3 ovarian): > 100 µM
GI50 (MDA-MB-435): > 100 µM
TGI (MDA-MB-435): > 100 µM
GI50 (SK-MEL-5 melanoma): > 100 µM
TGI (SK-MEL-5 melanoma): > 100 µM
GI50 (NCI-H226 lung): > 100 µM
TGI (NCI-H226 lung): > 100 µM
GI50 (HOP-92 NSCLC): > 100 µM
TGI (HOP-92 NSCLC): > 100 µM
GI50 (MOLT-4 leukemia): > 100 µM
TGI (MOLT-4 leukemia): > 100 µM
GI50 (NCI-H23 lung): > 100 µM
TGI (NCI-H23 lung): > 100 µM
GI50 (HCC-2998 colon): > 100 µM
TGI (HCC-2998 colon): > 100 µM
GI50 (DU-145 prostate): > 100 µM
TGI (DU-145 prostate): > 100 µM
GI50 (HCT-15 colon): > 100 µM
TGI (HCT-15 colon): > 100 µM
GI50 (M14 melanoma): 62.5 µM
TGI (M14 melanoma): > 100 µM
GI50 (HT29 colon): > 100 µM
TGI (HT29 colon): > 100 µM
GI50 (SF-295 CNS): > 100 µM
TGI (SF-295 CNS): > 100 µM
GI50 (SF-539 CNS): 38.3 µM
TGI (SF-539 CNS): > 100 µM
GI50 (NCI-H460 lung): > 100 µM
TGI (NCI-H460 lung): > 100 µM
GI50 (SF-268 CNS): > 100 µM
TGI (SF-268 CNS): > 100 µM
GI50 (LOX IMVI melanoma): > 100 µM
TGI (LOX IMVI melanoma): > 100 µM
GI50 (SK-MEL-2 melanoma): > 100 µM
TGI (SK-MEL-2 melanoma): > 100 µM
GI50 (IGROV1 ovarian): > 100 µM
TGI (IGROV1 ovarian): > 100 µM
GI50 (CAKI-1 renal): > 100 µM
TGI (CAKI-1 renal): > 100 µM
GI50 (HL-60(TB) leukemia): > 100 µM
TGI (HL-60(TB) leukemia): > 100 µM
GI50 (RXF 393 renal): > 100 µM
TGI (RXF 393 renal): > 100 µM
GI50 (PC-3 prostate): > 100 µM
TGI (PC-3 prostate): > 100 µM
